Measurements: patent US12331026B2 (NiKang Therapeutics, Inc., priority 2022, dated 2025)

Biological target: T1, CDK2 (Homo sapiens, UniProt P24941)
T1 construct: endogenous in cells; host or cells: OVCAR3 cells
Test: Phospho-RB measurement in OVCAR3 cells (HTRF phospho-RB S807/811)
Assay type: cell-based
Details: phosphorylation of RB protein at S807/811, HTRF, 24 h compound treatment, 0.3 to 10,000 nM, read-out: pRb (uM)
How it was run: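 IC50 values come from four-parameter logistic fits of the DMSO-normalised 665/620 nm TR-FRET ratio for phospho-RB (S807/811). Antibody detection ran 4 h at room temperature.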

IC50 | SMILES
0.06 µM | O=S1(=O)C[C@@H]2[C@H](C1)[C@H]2Nc1nccc(-c2sc(N3C4CCC3CN(C3CC3)C4)nc2-c2cccc(NS(=O)(=O)c3c(F)cccc3F)c2F)n1 [Example 127, N-(3-(2-(3-cyclopropyl-3,8-diazabicyclo[3.2.1]octan-8-yl)-5-(2-(((1R,5S,6r)-3,3-dioxido-3-thiabicyclo[3.1.0]hexan-6-yl)amino)-pyrimidin-4-yl)thiazol-4-yl)-2-fluorophenyl)-2,6-difluorobenzene-sulfonamide]
0.1 µM | [2H]C([2H])([2H])N1CC2CCC(C1)N2c1nc(-c2cccc(NS(=O)(=O)c3c(F)cccc3F)c2F)c(-c2ccnc(NC3CC4(C3)CS(=O)(=O)C4)n2)s1 [Example 137, N-(3-(5-(2-((2,2-dioxido-2-thiaspiro[3.3]heptan-6-yl)amino)-pyrimidin-4-yl)-2-(3-(methyl-d3)-3,8-diazabicyclo[3.2.1]octan-8-yl)thiazol-4-yl)-2-fluorophenyl)-2,6-difluorobenzenesulfonamide]
1.17 µM | CN1CC2CCC1CN2c1nc(-c2cccc(NS(=O)(=O)c3c(F)cccc3F)c2F)c(-c2ccnc(NC3CC4(C3)CS(=O)(=O)C4)n2)s1 (stereo not drawn) [Example 28, N-(3-(5-(2-((2,2-dioxido-2-thiaspiro[3.3]heptan-6-yl)amino)pyrimidin-4-yl)-2-(5-methyl-2,5-diazabicyclo[2.2.2]octan-2-yl)thiazol-4-yl)-2-fluorophenyl)-2,6-difluorobenzenesulfonamide]
1.36 µM | CC1(O)CC(N2CC3CCC(C2)N3c2nc(-c3cccc(NS(=O)(=O)c4c(F)cccc4F)c3F)c(-c3ccnc(NC4CC5(C4)CS(=O)(=O)C5)n3)s2)C1 (stereo not drawn) [Example 46, N-(3-(5-(2-((2,2-dioxido-2-thiaspiro[3.3]heptan-6-yl)amino)-pyrimidin-4-yl)-2-(3-(3-hydroxy-3-methylcyclobutyl)-3,8-diazabicyclo[3.2.1]octan-8-yl)thiazol-4-yl)-2-fluorophenyl)-2,6-difluorobenzenesulfonamide]
0.19 µM | O=S1(=O)CC2(CC(Nc3nccc(-c4sc(N5C6CCCC5CC6)nc4-c4cccc(NS(=O)(=O)c5c(F)cccc5F)c4F)n3)C2)C1 [Example 19, N-(3-(2-(8-azabicyclo[3.2.1]octan-8-yl)-5-(2-((2,2-dioxido-2-thiaspiro[3.3]heptan-6-yl)amino)pyrimidin-4-yl)thiazol-4-yl)-2-fluorophenyl)-2,6-difluorobenzenesulfonamide]
0.1 µM | CC1(C#N)CC2CCC(C1)N2c1nc(-c2cccc(NS(=O)(=O)c3c(F)cccc3F)c2F)c(-c2ccnc(NC3CC4(C3)CS(=O)(=O)C4)n2)s1 (stereo not drawn) [Example 33, N-(3-(2-(3-cyano-3-methyl-8-azabicyclo[3.2.1]octan-8-yl)-5-(2-((2,2-dioxido-2-thiaspiro[3.3]heptan-6-yl)amino)pyrimidin-4-yl)thiazol-4-yl)-2-fluorophenyl)-2,6-difluorobenzenesulfonamide]
0.068 µM | O=S1(=O)CC2(CC(Nc3nccc(-c4sc(N5C6CCC5CC(F)(F)C6)nc4-c4cccc(NS(=O)(=O)c5c(F)cccc5F)c4F)n3)C2)C1 [Example 12, N-(3-(2-(3,3-difluoro-8-azabicyclo[3.2.1]octan-8-yl)-5-(2-((2,2-dioxido-2-thiaspiro[3.3]heptan-6-yl)amino)pyrimidin-4-yl)thiazol-4-yl)-2-fluorophenyl)-2,6-difluorobenzenesulfonamide]
0.08 µM | O=S1(=O)CC2(CC(Nc3nccc(-c4sc(N5C6CCC5CN(C5CCC5)C6)nc4-c4cccc(NS(=O)(=O)c5c(F)cccc5F)c4F)n3)C2)C1 [Example 52, N-(3-(2-(3-cyclobutyl-3,8-diazabicyclo[3.2.1]octan-8-yl)-5-(2-((2,2-dioxido-2-thiaspiro[3.3]heptan-6-yl)amino)pyrimidin-4-yl)thiazol-4-yl)-2-fluorophenyl)-2,6-difluorobenzenesulfonamide]
0.39 µM | CC1CCC(C)N1c1nc(-c2cccc(NS(=O)(=O)c3c(F)cccc3F)c2F)c(-c2ccnc(NC3CC4(C3)CS(=O)(=O)C4)n2)s1 (stereo not drawn) [Example 65, N-(3-(2-(2,5-dimethylpyrrolidin-1-yl)-5-(2-((2,2-dioxido-2-thiaspiro[3.3]heptan-6-yl)amino)pyrimidin-4-yl)thiazol-4-yl)-2-fluorophenyl)-2,6-difluorobenzenesulfonamide]
0.13 µM | O=S1(=O)CC2(CC(Nc3nccc(-c4sc(N5C6CCC5CN(CC(F)(F)F)C6)nc4-c4cccc(NS(=O)(=O)c5c(F)cccc5F)c4F)n3)C2)C1 [Example 139, N-(3-(5-(2-((2,2-dioxido-2-thiaspiro[3.3]heptan-6-yl)amino)-pyrimidin-4-yl)-2-(3-(2,2,2-trifluoroethyl)-3,8-diazabicyclo-[3.2.1]octan-8-yl)thiazol-4-yl)-2-fluorophenyl)-2,6-difluoro-benzenesulfonamide]

Second part, the compound before the results:

SMILES | IC50
C[C@H]1COC[C@H](C)N1c1nc(-c2cccc(NS(=O)(=O)c3c(F)cccc3C(F)(F)F)c2F)c(-c2ccnc(NC3CC4(C3)CS(=O)(=O)C4)n2)s1 [Example 79, N-(3-(2-((3S,5S)-3,5-dimethylmorpholino)-5-(2-((2,2-dioxido-2-thiaspiro[3.3]heptan-6-yl)amino)pyrimidin-4-yl)thiazol-4-yl)-2-fluorophenyl)-2-fluoro-6-(trifluoromethyl)benzenesulfonamide] | 0.06 µM
CN1CC2CCC(C1)N2c1nc(-c2cccc(NS(=O)(=O)c3c(OC(F)F)cccc3C(F)(F)F)c2F)c(-c2ccnc(NC3CC4(C3)CS(=O)(=O)C4)n2)s1 [Example 75, 2-(difluoromethoxy)-N-(3-(5-(2-((2,2-dioxido-2-thiaspiro[3.3]heptan-6-yl)amino)pyrimidin-4-yl)-2-(3-methyl-3,8-diazabicyclo[3.2.1]octan-8-yl)thiazol-4-yl)-2-fluorophenyl)-6-(trifluoromethyl)benzenesulfonamide] | 0.85 µM
O=S1(=O)CC2(CC(Nc3nccc(-c4sc(C5(C(F)(F)F)CC5)nc4-c4cccc(NS(=O)(=O)c5c(F)cccc5F)c4F)n3)C2)C1 [Example 89, N-(3-(5-(2-((2,2-dioxido-2-thiaspiro[3.3]heptan-6-yl)amino)-pyrimidin-4-yl)-2-(1-(trifluoromethyl)cyclopropyl)thiazol-4-yl)-2-fluorophenyl)-2,6-difluorobenzenesulfonamide] | 0.12 µM
O=S1(=O)CC2(CC(Nc3nccc(-c4sc(C5(C(F)(F)F)CC5)nc4-c4cccc(NS(=O)(=O)c5c(F)cccc5C(F)(F)F)c4F)n3)C2)C1 [Example 85, N-(3-(5-(2-((2,2-dioxido-2-thiaspiro[3.3]heptan-6-yl)amino)-pyrimidin-4-yl)-2-(1-(trifluoromethyl)cyclopropyl)thiazol-4-yl)-2-fluorophenyl)-2-fluoro-6-(trifluoromethyl)benzenesulfonamide] | 0.03 µM
CS(=O)(=O)[C@H]1CC[C@H](Nc2nccc(-c3sc(C45CC(C4)C5)nc3-c3cccc(NS(=O)(=O)c4c(F)cccc4C(F)(F)F)c3F)n2)CC1 [Example 36] | 0.09 µM
O=S1(=O)C[C@@H]2[C@H](C1)[C@H]2Nc1nccc(-c2sc(C3(C(F)F)CC3)nc2-c2cccc(NS(=O)(=O)c3c(F)cccc3C(F)(F)F)c2F)n1 [Example 72, N-(3-(2-(1-(difluoromethyl)cyclopropyl)-5-(2-(((1R,5S,6r)-3,3-dioxido-3-thiabicyclo[3.1.0]hexan-6-yl)amino)pyrimidin-4-yl)thiazol-4-yl)-2-fluorophenyl)-2-fluoro-6-(trifluoromethyl)benzenesulfonamide] | 0.061 µM
O=S1(=O)C[C@H]2C[C@H](Nc3nccc(-c4sc(C56CC(C5)C6)nc4-c4cccc(NS(=O)(=O)c5c(F)cccc5F)c4F)n3)C[C@H]2C1 [Example 152, N-(3-(2-(bicyclo[1.1.1]pentan-1-yl)-5-(2-(((3aR,5s,6aS)-2,2-dioxidohexahydro-1H-cyclopenta[c]thiophen-5-yl)amino)pyrimidin-4-yl)thiazol-4-yl)-2-fluorophenyl)-2,6-difluorobenzenesulfonamide] | 0.15 µM
O=S1(=O)C[C@@H]2[C@H](C1)[C@@H]2Nc1nccc(-c2sc(C34CCC(CC3)CC4)nc2-c2cccc(NS(=O)(=O)c3c(F)cccc3F)c2F)n1 [Example 119, N-(3-(2-(bicyclo[2.2.2]octan-1-yl)-5-(2-(((1R,5S,6s)-3,3-dioxido-3-thiabicyclo[3.1.0]hexan-6-yl)amino)pyrimidin-4-yl)thiazol-4-yl)-2-fluorophenyl)-2,6-difluorobenzenesulfonamide] | 1.34 µM
O=S1(=O)CC2(CC(Nc3nccc(-c4sc(C56CC(C5)C6)nc4-c4cccc(NS(=O)(=O)c5c(F)cccc5C(F)F)c4F)n3)C2)C1 [Example 47, N-(3-(2-(bicyclo[1.1.1]pentan-1-yl)-5-(2-((2,2-dioxido-2-thiaspiro[3.3]heptan-6-yl)amino)pyrimidin-4-yl)thiazol-4-yl)-2-fluorophenyl)-2-(difluoromethyl)-6-fluorobenzenesulfonamide] | 0.05 µM
O=S1(=O)C[C@@H]2[C@H](C1)[C@H]2Nc1nccc(-c2sc(C34CC(C3)C4)nc2-c2cccc(NS(=O)(=O)c3c(F)cccc3C(F)(F)F)c2F)n1 [Example 103, N-(3-(2-(bicyclo[1.1.1]pentan-1-yl)-5-(2-(((1R,5S,6r)-3,3-dioxido-3-thiabicyclo[3.1.0]hexan-6-yl)amino)pyrimidin-4-yl)thiazol-4-yl)-2-fluorophenyl)-2-fluoro-6-(trifluoromethyl)benzenesulfonamide] | 0.1 µM
O=S1(=O)CC2(CC(Nc3nccc(-c4sc(C56CC(C(F)(F)F)(C5)C6)nc4-c4cccc(NS(=O)(=O)c5c(F)cccc5C(F)(F)F)c4F)n3)C2)C1 [Example 88, N-(3-(5-(2-((2,2-dioxido-2-thiaspiro[3.3]heptan-6-yl)amino)-pyrimidin-4-yl)-2-(3-(trifluoromethyl)bicyclo[1.1.1]pentan-1-yl)thiazol-4-yl)-2-fluorophenyl)-2-fluoro-6-(trifluoromethyl)-benzenesulfonamide] | 0.09 µM
